Here are results for 51 compounds from patent publication US5972939A, “Cyclopentene derivatives useful as antagonists of the motilin receptor” (Ortho-McNeil Pharmaceutical, Inc., priority 1998, dated 1999).

T1 sequence (G1T803 1-400): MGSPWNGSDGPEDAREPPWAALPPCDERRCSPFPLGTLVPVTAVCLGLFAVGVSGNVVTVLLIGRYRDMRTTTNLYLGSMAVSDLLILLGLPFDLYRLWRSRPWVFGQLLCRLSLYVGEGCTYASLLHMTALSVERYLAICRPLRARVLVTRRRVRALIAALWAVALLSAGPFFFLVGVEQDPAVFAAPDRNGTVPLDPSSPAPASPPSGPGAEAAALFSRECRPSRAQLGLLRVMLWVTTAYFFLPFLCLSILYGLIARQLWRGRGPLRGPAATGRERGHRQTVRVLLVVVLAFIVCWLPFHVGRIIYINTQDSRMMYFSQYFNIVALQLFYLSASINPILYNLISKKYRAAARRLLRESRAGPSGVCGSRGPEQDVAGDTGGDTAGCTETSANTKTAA

One test concerns the target T1, motilin receptors located on the colon of mature rabbits (Oryctolagus cuniculus, UniProt G1T803).
T1 construct: The colon from mature New Zealand rabbits was removed, dissected free from the mucosa and serosa layers, and diced into small pieces; from tissue; host or cells: colon smooth muscle of mature New Zealand rabbits, crude membrane homogenate
The experiment in a line: competition with radiolabeled (125I) porcine motilin for the motilin receptors of rabbit colon. It counts as binding. The following applies: @ 0.1 μM. As for the experimental part: The compounds of the invention were tested for their ability to compete with radiolabeled motilin (porcine) for the motilin receptors located on the colon of mature rabbits. The colon from mature New Zealand rabbits was removed, dissected free from the mucosa and serosa layers, and diced into small pieces. […] The homogenate was centrifuged at 1000×g for 15 min. and the supernatant discarded. The pellet was washed twice before being suspended in homogenizing buffer. This crude homogenate is then passed first through a 19 gauge needle then a 23 gauge needle to further suspend the material and stored as -80° C. […] After 30 min, at 30° C., the material was cooled on ice and centrifuged at 13,000×g for 1 minute. The pellet was washed with 1 mL 0.9% saline and centrifuged at 13,000×g for 15 seconds. The pellet was washed again with cold saline and the supernatant was removed. The pellet was counted in the gamma counter to determine the percentage of […] motilin and thereby the percent inhibition of the test compound. IC50s were determined for some compounds by standard techniques.
`O=C(NC1(Cc2ccccc2)C=C(CN(C(=S)Nc2ccccc2)c2cccc(OCCN3CCOCC3)c2)CC1)C(Cl)(Cl)Cl` (stereo not drawn) [Compound 11] gave an inhibition at 0.1 µM of 45%. Same read-out and setting: for `O=C(c1cccc(Br)c1)N(CC1=CC(Cc2ccccc2)(NC(=O)C(Cl)(Cl)Cl)CC1)c1cccc(OCCN2CCOCC2)c1` (stereo not drawn) [Compound 101] the value was 54%; for `O=C(c1ccc(Cl)cc1)N(CC1=CC(Cc2ccccc2)(NC(=O)C(Cl)(Cl)Cl)CC1)c1cccc(OCCN2CCOCC2)c1` (stereo not drawn) [Compound 102], 61%; for `O=C(c1cccc(C(F)(F)F)c1)N(CC1=CC(Cc2ccccc2)(NC(=O)C(Cl)(Cl)Cl)CC1)c1cccc(OCCCN2CCOCC2)c1` (stereo not drawn) [Compound 103], 52%.

Regarding `O=C(c1ccc(C(F)(F)F)cc1)N(CC1=CC(Cc2ccccc2)(NC(=O)C(Cl)(Cl)Cl)CC1)c1cccc(OCCN2CCOCC2)c1` (stereo not drawn) [Compound 104], the inhibition at 0.1 µM was determined as 29%. Still for that read-out and setting: in the case of `O=C(c1ccc(I)cc1)N(CC1=CC(Cc2ccccc2)(NC(=O)C(Cl)(Cl)Cl)CC1)c1cccc(OCCN2CCOCC2)c1` (stereo not drawn) [Compound 105] it was 59%; in that of `O=C(c1cc(F)cc(F)c1)N(CC1=CC(Cc2ccccc2)(NC(=O)C(Cl)(Cl)Cl)CC1)c1cccc(OCCN2CCOCC2)c1` (stereo not drawn) [Compound 106], 78%.

Still in this test, the particulars now being: @ 0.5 μM.
As for `COc1cccc(C(=O)N(CC2=CC(Cc3ccccc3)(NC(=O)C(Cl)(Cl)Cl)CC2)c2cccc(OCCN3CCOCC3)c2)c1` (stereo not drawn) [Compound 90], the inhibition at 0.5 µM was 65%.

Staying with this test, now noted: @ 1.0 μM.
In turn, `CC(=O)NC1(Cc2ccccc2)C=C(CN(C(=O)Nc2ccccc2)c2cccc(OCCN3CCOCC3)c2)CC1` (stereo not drawn) [Compound 15, 3-Benzyl-3-acetylamino-1-(N-phenylaminocarbonyl)-N-[(3-(2-morpholinoethoxy)phenyl)amino]methylcyclopentene] had an inhibition at 1 µM of 40%.

Compound `O=C(Nc1ccccc1)N(CC1=CC(Cc2ccccc2)(NC(=O)C(Cl)(Cl)Cl)CC1)c1cccc(CCCN2CCOCC2)c1` (stereo not drawn) [Compound 19] registered an inhibition at 1 µM of 59%. On the same count and under the same terms, in the case of `O=C(c1ccc(Br)cc1)N(CC1=CC(Cc2ccccc2)(NC(=O)C(Cl)(Cl)Cl)CC1)c1cc(OCCN2CCOCC2)ccc1Cl` (stereo not drawn) [Compound 38] it was 59%. In turn, `CN(C)c1ccc(C(=O)N(CCc2cccc(OCCN3CCOCC3)c2)CC2=CC(Cc3ccccc3)(NC(=O)C(Cl)(Cl)Cl)CC2)cc1` (stereo not drawn) [Compound 96] yielded an inhibition at 1 µM of 62%.

With `O=C(c1ccc(F)cc1)N(CC1=CC(Cc2ccccc2)(NC(=O)C(Cl)(Cl)Cl)CC1)c1cccc(CCCN2CCOCC2)c1` (stereo not drawn) [Compound 98], testing at 1 µM gave an inhibition of 17%. The same measure, in the same setting: for `O=C(c1cc(C(F)(F)F)cc(C(F)(F)F)c1)N(CC1=CC(Cc2ccccc2)(NC(=O)C(Cl)(Cl)Cl)CC1)c1cccc(OCCN2CCOCC2)c1` (stereo not drawn) [Compound 99] the value was 28%. Same read-out and setting: for `O=C(c1cccs1)N(CC1=CC(Cc2ccccc2)(NC(=O)C(Cl)(Cl)Cl)CC1)c1cccc(OCCN2CCOCC2)c1` (stereo not drawn) [Compound 108] the value was 84%. On the same count and under the same terms, in the case of `CC(C)(C)c1ccc(C(=O)N(CC2=CC(Cc3ccccc3)(NC(=O)C(Cl)(Cl)Cl)CC2)c2cccc(OCCN3CCOCC3)c2)cc1` (stereo not drawn) [Compound 110] it was 19%.

Still in this test, the particulars now being: @ 2.0 μM.
The compound `O=C(Oc1cccc(CCN(CCN2CCOCC2)CC2=CC(Cc3ccccc3)(NC(=O)C(Cl)(Cl)Cl)CC2)c1)c1ccccc1` (stereo not drawn) [Compound 85] had an inhibition at 2 µM of 9%.

`CN(C)CCSc1ccc(N(CC2=CC(Cc3ccccc3)(NC(=O)C(Cl)(Cl)Cl)CC2)C(=O)c2ccccc2)cc1` (stereo not drawn) [Compound 86] yielded an inhibition at 2 µM of 49%. On the same count and under the same terms, for `COc1ccc(CCN(CCN2CCOCC2)CC2=CC(Cc3ccccc3)(NC(=O)C(Cl)(Cl)Cl)CC2)cc1OC(=O)c1ccccc1` (stereo not drawn) [Compound 95] the value was 22%.

Staying with this test, now noted: @ 5.0 μM.
The compound `COc1ccc(NC(=O)N(CC2=CC(Cc3ccccc3)(NC(=O)C(Cl)(Cl)Cl)CC2)c2cccc(OCCN3CCOCC3)c2)cc1` (stereo not drawn) [Compound 89] displayed an inhibition at 5 µM of 26%.

Staying with this test, now noted: @ 10 μM.
`O=C(NC1(Cc2ccccc2)C=C(CNc2cccc(OCCN3CCOCC3)c2)CC1)C(Cl)(Cl)Cl` (stereo not drawn) [Compound 6] displayed an inhibition at 10 µM of 37%. Same read-out and setting: for `O=C(Nc1ccccc1)N(CC1=CC(Cc2ccccc2)(NC(=O)C(Cl)(Cl)Cl)CC1)c1cccc(SCCN2CCOCC2)c1` (stereo not drawn) [Compound 22, 3-Benzyl-3-trichloroacetylamino-1-(N-phenylaminocarbonyl)-N-[(3-(2-morpholinoethyl)phenyl)thio]methylcyclopentene] the value was 83%; for `O=C(c1ccccc1)N(CC1=CC(Cc2ccccc2)(NC(=O)C(Cl)(Cl)Cl)CC1)Cc1cccc(OCCN2CCOCC2)c1` (stereo not drawn) [Compound 32], 70%; for `COc1ccc(N(CC2=CC(Cc3ccccc3)(NC(=O)C(Cl)(Cl)Cl)CC2)C(=O)c2ccccc2)cc1OCCN1CCOCC1` (stereo not drawn) [Compound 34], 74%. `COc1ccc(N(CCN2CCOCC2)CC2=CC(Cc3ccccc3)(NC(=O)C(Cl)(Cl)Cl)CC2)cc1OCCN1CCOCC1` (stereo not drawn) [Compound 40] returned an inhibition at 10 µM of 27%.

Take `O=C(c1ccccc1)N(CCc1cccc(OCCN2CCOCC2)c1)CC1=CC(Cc2ccccc2)(NC(=O)C(Cl)(Cl)Cl)CC1` (stereo not drawn) [Compound 41]: the inhibition at 10 µM is 82%. Still for that read-out and setting: for `CCOC(=O)COc1cccc(N(CC2=CC(Cc3ccccc3)(NC(=O)C(Cl)(Cl)Cl)CC2)C(=O)c2ccccc2)c1` (stereo not drawn) [Compound 46] the value was 51%; for `O=C(NC1(Cc2ccccc2)C=C(CNc2ccc(O)cc2)CC1)C(Cl)(Cl)Cl` (stereo not drawn) [Compound 69], 11%; for `CCN(CC)CCN(CC1=CC(Cc2ccccc2)(NC(=O)C(Cl)(Cl)Cl)CC1)c1ccccc1OCCN1CCOCC1` (stereo not drawn) [Compound 70], 80%.

`CCN(CC)CCN(CC1=CC(Cc2ccccc2)(NC(=O)C(Cl)(Cl)Cl)CC1)c1ccc(OCCN(C)C)cc1` (stereo not drawn) [Compound 71] returned an inhibition at 10 µM of 85%. Still for that read-out and setting: in the case of `CCN(CC)CCN(CC1=CC(Cc2ccccc2)(NC(=O)C(Cl)(Cl)Cl)CC1)c1ccccc1O` (stereo not drawn) [Compound 73] it was 84%.

`CCN(CC)CCN(CC1=CC(Cc2ccccc2)(NC(=O)C(Cl)(Cl)Cl)CC1)c1ccc(O)cc1` (stereo not drawn) [Compound 74] yielded an inhibition at 10 µM of 81%. In turn, `Nc1cccc(NCC2=CC(Cc3ccccc3)(NC(=O)C(Cl)(Cl)Cl)CC2)c1` (stereo not drawn) [Compound 75] returned an inhibition at 10 µM of 41%. Same read-out and setting: for `CCN(CC)CCN(CCc1ccc(O)cc1)CC1=CC(Cc2ccccc2)(NC(=O)C(Cl)(Cl)Cl)CC1` (stereo not drawn) [Compound 76] the value was 84%; for `CCN(CC)CCSc1cccc(N(CC2=CC(Cc3ccccc3)(NC(=O)C(Cl)(Cl)Cl)CC2)C(=O)c2ccccc2)c1` (stereo not drawn) [Compound 79], 98%; for `O=C(c1ccc(F)cc1)N(CC1=CC(Cc2ccccc2)(NC(=O)C(Cl)(Cl)Cl)CC1)c1cccc(SCCN2CCOCC2)c1` (stereo not drawn) [Compound 80], 79%. `O=C(NC1(Cc2ccccc2)C=C(CNCCc2cccc(SCCN3CCOCC3)c2)CC1)C(Cl)(Cl)Cl` (stereo not drawn) [Compound 81] had an inhibition at 10 µM of 81%. On the same count and under the same terms, for `O=C(c1ccccc1)N(CC1=CC(Cc2ccccc2)(NC(=O)C(Cl)(Cl)Cl)CC1)c1cccc(SCCN2CCOCC2)c1` (stereo not drawn) [Compound 82] the value was 80%. Still for that read-out and setting: in the case of `CCN(CC)CCOc1cccc(CN(CC2=CC(Cc3ccccc3)(NC(=O)C(Cl)(Cl)Cl)CC2)C(=O)c2ccccc2)c1` (stereo not drawn) [Compound 83] it was 100%; in that of `COc1ccc(C(=O)N(CC2=CC(Cc3ccccc3)(NC(=O)C(Cl)(Cl)Cl)CC2)c2cccc(SCCN3CCOCC3)c2)cc1` (stereo not drawn) [Compound 84], 59%; in that of `COc1ccc(NCC2=CC(Cc3ccccc3)(NC(=O)C(Cl)(Cl)Cl)CC2)cc1O` (stereo not drawn) [Compound 87], 32%. On the same count and under the same terms, for `O=C(NC1(Cc2ccccc2)C=C(CN(Cc2ccccc2)Cc2cccc(OCCN3CCOCC3)c2)CC1)C(Cl)(Cl)Cl` (stereo not drawn) [Compound 88] the value was 94%; for `CCN(CC)CCN(CCc1cccc(OCCN2CCOCC2)c1)CC1=CC(Cc2ccccc2)(NC(=O)C(Cl)(Cl)Cl)CC1` (stereo not drawn) [Compound 92], 95%. In turn, `COc1ccc(N(CC2=CC(Cc3ccccc3)(NC(=O)C(Cl)(Cl)Cl)CC2)Cc2ccccc2)cc1OCCN1CCOCC1` (stereo not drawn) [Compound 93] came in with an inhibition at 10 µM of 62%. On the same count and under the same terms, in the case of `COc1ccc(NCC2=CC(Cc3ccccc3)(NC(=O)C(Cl)(Cl)Cl)CC2)cc1OCCN1CCOCC1` (stereo not drawn) [Compound 94] it was 48%.

The test is the same for the next values; noted with them: rabbit colon, 125I motilin; read-out: IC50.
For `O=C(c1ccc(Cl)c(Cl)c1)N(CC1=CC(Cc2ccccc2)(NC(=O)C(Cl)(Cl)Cl)CC1)c1cccc(OCCN2CCOCC2)c1` (stereo not drawn) [Compound 97], the IC50 was 0.26 µM. Same read-out and setting: for `O=C(c1c(F)c(F)c(F)c(F)c1F)N(CC1=CC(Cc2ccccc2)(NC(=O)C(Cl)(Cl)Cl)CC1)c1cccc(OCCN2CCOCC2)c1` (stereo not drawn) [Compound 100] the value was 1 µM. Same read-out and setting: in the case of `N#Cc1ccc(C(=O)N(CC2=CC(Cc3ccccc3)(NC(=O)C(Cl)(Cl)Cl)CC2)c2cccc(OCCN3CCOCC3)c2)cc1` (stereo not drawn) [Compound 109] it was 0.098 µM.

Staying with this test, now noted: rabbit colon, 125I motilin; read-out: IC50 (unit inferred).
Consider `CCN(CC)CCN(CC1=CC(Cc2ccccc2)(NC(=O)C(Cl)(Cl)Cl)CC1)c1ccccc1OCCN1CCOCC1` (stereo not drawn) [Compound 72], for which the IC50 is 0.9 µM. Regarding `CCN(CC)CCOc1cccc(CN(CC2=CC(Cc3ccccc3)(NC(=O)C(Cl)(Cl)Cl)CC2)C2CCN(Cc3ccccc3)CC2)c1` (stereo not drawn) [Compound 77], the half-inhibitory concentration (IC50) is 0.8 µM.

Regarding `CC(=O)N(CC1=CC(Cc2ccccc2)(NC(=O)C(Cl)(Cl)Cl)CC1)c1cccc(OCCN2CCOCC2)c1` (stereo not drawn) [Compound 78], the IC50 came out at 1.03 µM.
